System: pigweed (Amaranthus retroflexus)
Assay: Test A preemergence, pigweed
Format: in vivo
Conditions: 125 g ai/ha, 0 to 100 scale
Excerpt: (§1) Seeds of plant species selected from barnyardgrass (Echinochloa crus-galli), crabgrass (large crabgrass, Digitaria sanguinalis), kochia (Kochia scoparia), ragweed (common ragweed, Ambrosia elatior), morningglory (Ipomoea spp.), velvetleaf (Abutilon theophrasti), ryegrass, It. (Italian ryegrass, Lolium multiflorum), foxtail, giant (giant foxtail, Setaria faberii), wheat (Triticum aestivum), corn (Zea mays), and pigweed (Amaranthus retroflexus), were planted into a blend of loam soil and sand and treated preemergence with a directed soil spray using test chemicals formulated in a non-phytotoxic solvent mixture which included a surfactant. At the same time, plants selected from these crop and weed species and also blackgrass (Alopecurus myosuroides), and galium (catchweed bedstraw, Galium aparine), were planted in pots containing the same blend of loam soil and sand and treated with postemergence applications of test chemicals formulated in the same manner. Plants ranged in height from 2 to 10 cm and were in the one- to two-leaf stage for the postemergence treatment. Treated plants and untreated controls were maintained in a greenhouse for approximately 10 d, after which time all treated plants were compared to untreated controls and visually evaluated for injury. Plant response ratings, summarized in Table A, are based on a 0 to 100 scale where 0 is no effect and 100 is complete control. A dash (-) response means no test result.

Structure (SMILES)	Plant response rating, Pigweed
O=C1NCC(Cc2ccc(C(F)(F)F)cc2)C1C(=O)Nc1cccc(F)c1F (stereo not drawn) [Compound 7]	0

Same assay, conditions: 500 g ai/ha, 0 to 100 scale

Structure (SMILES)	Plant response rating, Pigweed
O=C1NCC(Cc2ccc(C(F)(F)F)cc2)C1C(=O)Nc1cccc(F)c1F (stereo not drawn) [Compound 7]	0

System: barnyardgrass (Echinochloa crus-galli)
Assay: Test A postemergence, barnyardgrass
Format: in vivo
Conditions: 125 g ai/ha, 0 to 100 scale
Excerpt: as §1

Structure (SMILES)	Plant response rating, Barnyardgrass
O=C1NCC(Cc2ccc(C(F)(F)F)cc2)C1C(=O)Nc1cccc(F)c1F (stereo not drawn) [Compound 7]	0

Same assay, conditions: 500 g ai/ha, 0 to 100 scale

Structure (SMILES)	Plant response rating, Barnyardgrass
O=C1NCC(Cc2ccc(C(F)(F)F)cc2)C1C(=O)Nc1cccc(F)c1F (stereo not drawn) [Compound 7]	60

System: ryegrass, It. (Italian ryegrass, Lolium multiflorum)
Assay: Test A preemergence, ryegrass, It.
Format: in vivo
Conditions: 125 g ai/ha, 0 to 100 scale
Excerpt: as §1

Structure (SMILES)	Plant response rating, Ryegrass, It.
O=C1NCC(Cc2ccc(C(F)(F)F)cc2)C1C(=O)Nc1cccc(F)c1F (stereo not drawn) [Compound 7]	0

Same assay, conditions: 500 g ai/ha, 0 to 100 scale

Structure (SMILES)	Plant response rating, Ryegrass, It.
O=C1NCC(Cc2ccc(C(F)(F)F)cc2)C1C(=O)Nc1cccc(F)c1F (stereo not drawn) [Compound 7]	0

System: kochia (Kochia scoparia)
Assay: Test A postemergence, kochia
Format: in vivo
Conditions: 125 g ai/ha, 0 to 100 scale
Excerpt: as §1

Structure (SMILES)	Plant response rating, Kochia
O=C1NCC(Cc2ccc(C(F)(F)F)cc2)C1C(=O)Nc1cccc(F)c1F (stereo not drawn) [Compound 7]	0

Same assay, conditions: 500 g ai/ha, 0 to 100 scale

Structure (SMILES)	Plant response rating, Kochia
O=C1NCC(Cc2ccc(C(F)(F)F)cc2)C1C(=O)Nc1cccc(F)c1F (stereo not drawn) [Compound 7]	0

System: pigweed (Amaranthus retroflexus)
Assay: Test A postemergence, pigweed
Format: in vivo
Conditions: 125 g ai/ha, 0 to 100 scale
Excerpt: as §1

Structure (SMILES)	Plant response rating, Pigweed
O=C1NCC(Cc2ccc(C(F)(F)F)cc2)C1C(=O)Nc1cccc(F)c1F (stereo not drawn) [Compound 7]	0

Same assay, conditions: 500 g ai/ha, 0 to 100 scale

Structure (SMILES)	Plant response rating, Pigweed
O=C1NCC(Cc2ccc(C(F)(F)F)cc2)C1C(=O)Nc1cccc(F)c1F (stereo not drawn) [Compound 7]	0

System: ducksalad (Heteranthera limosa)
Assay: Test B flooded paddy test, ducksalad
Format: in vivo
Conditions: Flood, 500 g ai/ha; scale of 0 to 100 where 0 is no effect and 100 is complete control; 13 to 15 d
Method: (§2) Plant species in the flooded paddy test selected from rice (Oryza sativa), sedge, umbrella (small-flower umbrella sedge, Cyperus difformis), ducksalad (Heteranthera limosa), and barnyardgrass (Echinochloa crus-galli) were grown to the 2-leaf stage for testing. At time of treatment, test pots were flooded to 3 cm above the soil surface, treated by application of test compounds directly to the paddy water, and then maintained at that water depth for the duration of the test. Treated plants and controls were maintained in a greenhouse for 13 to 15 d, after which time all species were compared to controls and visually evaluated. Plant response ratings, summarized in Table B, are based on a scale of 0 to 100 where 0 is no effect and 100 is complete control. A dash (-) response means no test result.

Structure (SMILES)	Plant response rating, Ducksalad
O=C1NCC(Cc2ccc(C(F)(F)F)cc2)C1C(=O)Nc1cccc(F)c1F (stereo not drawn) [Compound 7]	75

System: sedge, umbrella (small-flower umbrella sedge, Cyperus difformis)
Assay: Test B flooded paddy test, sedge, umbrella
Format: in vivo
Conditions: Flood, 500 g ai/ha; scale of 0 to 100 where 0 is no effect and 100 is complete control; 13 to 15 d
Method: as §2

Structure (SMILES)	Plant response rating, Sedge, Umbrella
O=C1NCC(Cc2ccc(C(F)(F)F)cc2)C1C(=O)Nc1cccc(F)c1F (stereo not drawn) [Compound 7]	0

System: galium (catchweed bedstraw, Galium aparine)
Assay: Test A postemergence, galium
Format: in vivo
Conditions: 125 g ai/ha, 0 to 100 scale
Excerpt: as §1

Structure (SMILES)	Plant response rating, Galium
O=C1NCC(Cc2ccc(C(F)(F)F)cc2)C1C(=O)Nc1cccc(F)c1F (stereo not drawn) [Compound 7]	0

Same assay, conditions: 500 g ai/ha, 0 to 100 scale

Structure (SMILES)	Plant response rating, Galium
O=C1NCC(Cc2ccc(C(F)(F)F)cc2)C1C(=O)Nc1cccc(F)c1F (stereo not drawn) [Compound 7]	0

System: foxtail, giant (giant foxtail, Setaria faberii)
Assay: Test A preemergence, foxtail, giant
Format: in vivo
Conditions: 125 g ai/ha, 0 to 100 scale
Excerpt: as §1

Structure (SMILES)	Plant response rating, Foxtail, Giant
O=C1NCC(Cc2ccc(C(F)(F)F)cc2)C1C(=O)Nc1cccc(F)c1F (stereo not drawn) [Compound 7]	0

Same assay, conditions: 500 g ai/ha, 0 to 100 scale

Structure (SMILES)	Plant response rating, Foxtail, Giant
O=C1NCC(Cc2ccc(C(F)(F)F)cc2)C1C(=O)Nc1cccc(F)c1F (stereo not drawn) [Compound 7]	30

System: blackgrass (Alopecurus myosuroides)
Assay: Test A postemergence, blackgrass
Format: in vivo
Conditions: 125 g ai/ha, 0 to 100 scale
Excerpt: as §1

Structure (SMILES)	Plant response rating, Blackgrass
O=C1NCC(Cc2ccc(C(F)(F)F)cc2)C1C(=O)Nc1cccc(F)c1F (stereo not drawn) [Compound 7]	0

Same assay, conditions: 500 g ai/ha, 0 to 100 scale

Structure (SMILES)	Plant response rating, Blackgrass
O=C1NCC(Cc2ccc(C(F)(F)F)cc2)C1C(=O)Nc1cccc(F)c1F (stereo not drawn) [Compound 7]	0

System: rice (Oryza sativa)
Assay: Test B flooded paddy test, rice
Format: in vivo
Conditions: Flood, 500 g ai/ha; scale of 0 to 100 where 0 is no effect and 100 is complete control; 13 to 15 d
Method: as §2

Structure (SMILES)	Plant response rating, Rice
O=C1NCC(Cc2ccc(C(F)(F)F)cc2)C1C(=O)Nc1cccc(F)c1F (stereo not drawn) [Compound 7]	0

System: ragweed (common ragweed, Ambrosia elatior)
Assay: Test A postemergence, ragweed
Format: in vivo
Conditions: 125 g ai/ha, 0 to 100 scale
Excerpt: as §1

Structure (SMILES)	Plant response rating, Ragweed
O=C1NCC(Cc2ccc(C(F)(F)F)cc2)C1C(=O)Nc1cccc(F)c1F (stereo not drawn) [Compound 7]	0

Same assay, conditions: 500 g ai/ha, 0 to 100 scale

Structure (SMILES)	Plant response rating, Ragweed
O=C1NCC(Cc2ccc(C(F)(F)F)cc2)C1C(=O)Nc1cccc(F)c1F (stereo not drawn) [Compound 7]	0

System: foxtail, giant (giant foxtail, Setaria faberii)
Assay: Test A postemergence, foxtail, giant
Format: in vivo
Conditions: 125 g ai/ha, 0 to 100 scale
Excerpt: as §1

Structure (SMILES)	Plant response rating, Foxtail, Giant
O=C1NCC(Cc2ccc(C(F)(F)F)cc2)C1C(=O)Nc1cccc(F)c1F (stereo not drawn) [Compound 7]	0

Same assay, conditions: 500 g ai/ha, 0 to 100 scale

Structure (SMILES)	Plant response rating, Foxtail, Giant
O=C1NCC(Cc2ccc(C(F)(F)F)cc2)C1C(=O)Nc1cccc(F)c1F (stereo not drawn) [Compound 7]	20

System: barnyardgrass (Echinochloa crus-galli)
Assay: Test A preemergence, barnyardgrass
Format: in vivo
Conditions: 125 g ai/ha, 0 to 100 scale
Excerpt: as §1

Structure (SMILES)	Plant response rating, Barnyardgrass
O=C1NCC(Cc2ccc(C(F)(F)F)cc2)C1C(=O)Nc1cccc(F)c1F (stereo not drawn) [Compound 7]	0

Same assay, conditions: 500 g ai/ha, 0 to 100 scale

Structure (SMILES)	Plant response rating, Barnyardgrass
O=C1NCC(Cc2ccc(C(F)(F)F)cc2)C1C(=O)Nc1cccc(F)c1F (stereo not drawn) [Compound 7]	40

System: ragweed (common ragweed, Ambrosia elatior)
Assay: Test A preemergence, ragweed
Format: in vivo
Conditions: 125 g ai/ha, 0 to 100 scale
Excerpt: as §1

Structure (SMILES)	Plant response rating, Ragweed
O=C1NCC(Cc2ccc(C(F)(F)F)cc2)C1C(=O)Nc1cccc(F)c1F (stereo not drawn) [Compound 7]	0

Same assay, conditions: 500 g ai/ha, 0 to 100 scale

Structure (SMILES)	Plant response rating, Ragweed
O=C1NCC(Cc2ccc(C(F)(F)F)cc2)C1C(=O)Nc1cccc(F)c1F (stereo not drawn) [Compound 7]	0

System: kochia (Kochia scoparia)
Assay: Test A preemergence, kochia
Format: in vivo
Conditions: 125 g ai/ha, 0 to 100 scale
Excerpt: as §1

Structure (SMILES)	Plant response rating, Kochia
O=C1NCC(Cc2ccc(C(F)(F)F)cc2)C1C(=O)Nc1cccc(F)c1F (stereo not drawn) [Compound 7]	0

Same assay, conditions: 500 g ai/ha, 0 to 100 scale

Structure (SMILES)	Plant response rating, Kochia
O=C1NCC(Cc2ccc(C(F)(F)F)cc2)C1C(=O)Nc1cccc(F)c1F (stereo not drawn) [Compound 7]	0

System: barnyardgrass (Echinochloa crus-galli)
Assay: Test B flooded paddy test, barnyardgrass
Format: in vivo
Conditions: Flood, 500 g ai/ha; scale of 0 to 100 where 0 is no effect and 100 is complete control; 13 to 15 d
Method: as §2

Structure (SMILES)	Plant response rating, Barnyardgrass
O=C1NCC(Cc2ccc(C(F)(F)F)cc2)C1C(=O)Nc1cccc(F)c1F (stereo not drawn) [Compound 7]	25

System: wheat (Triticum aestivum)
Assay: Test A postemergence, wheat
Format: in vivo
Conditions: 125 g ai/ha, 0 to 100 scale
Excerpt: as §1

Structure (SMILES)	Plant response rating, Wheat
O=C1NCC(Cc2ccc(C(F)(F)F)cc2)C1C(=O)Nc1cccc(F)c1F (stereo not drawn) [Compound 7]	0

Same assay, conditions: 500 g ai/ha, 0 to 100 scale

Structure (SMILES)	Plant response rating, Wheat
O=C1NCC(Cc2ccc(C(F)(F)F)cc2)C1C(=O)Nc1cccc(F)c1F (stereo not drawn) [Compound 7]	0

System: ryegrass, It. (Italian ryegrass, Lolium multiflorum)
Assay: Test A postemergence, ryegrass, It.
Format: in vivo
Conditions: 125 g ai/ha, 0 to 100 scale
Excerpt: as §1

Structure (SMILES)	Plant response rating, Ryegrass, It.
O=C1NCC(Cc2ccc(C(F)(F)F)cc2)C1C(=O)Nc1cccc(F)c1F (stereo not drawn) [Compound 7]	0

Same assay, conditions: 500 g ai/ha, 0 to 100 scale

Structure (SMILES)	Plant response rating, Ryegrass, It.
O=C1NCC(Cc2ccc(C(F)(F)F)cc2)C1C(=O)Nc1cccc(F)c1F (stereo not drawn) [Compound 7]	0

System: corn (Zea mays)
Assay: Test A postemergence, corn
Format: in vivo
Conditions: 125 g ai/ha, 0 to 100 scale
Excerpt: as §1

Structure (SMILES)	Plant response rating, Corn
O=C1NCC(Cc2ccc(C(F)(F)F)cc2)C1C(=O)Nc1cccc(F)c1F (stereo not drawn) [Compound 7]	0

Same assay, conditions: 500 g ai/ha, 0 to 100 scale

Structure (SMILES)	Plant response rating, Corn
O=C1NCC(Cc2ccc(C(F)(F)F)cc2)C1C(=O)Nc1cccc(F)c1F (stereo not drawn) [Compound 7]	0

From US10906873B2, “Substituted cyclic amides as herbicides” (FMC Corporation, priority 2015, dated 2021)
